Measured values: US7056947B2, “Aza-peptide epoxides” (Georgia Tech Research Corp., priority 2002, dated 2006)

What was measured:
Type in all cases: biochemical
[1] = target: T1, caspase-6 (Homo sapiens, UniProt P55212); assay: Caspase-6 progress curve assay; settings: Table V, substrate Z-DEVD-AFC
T1 construct: made in house; host or cells: E. coli
T1 sequence (P55212 24-179 limits assumed): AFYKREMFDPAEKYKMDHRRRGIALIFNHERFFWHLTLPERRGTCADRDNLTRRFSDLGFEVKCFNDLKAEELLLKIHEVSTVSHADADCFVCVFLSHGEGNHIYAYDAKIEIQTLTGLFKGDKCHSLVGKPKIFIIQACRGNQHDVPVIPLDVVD
T1 sequence (P55212 194-293 limits assumed): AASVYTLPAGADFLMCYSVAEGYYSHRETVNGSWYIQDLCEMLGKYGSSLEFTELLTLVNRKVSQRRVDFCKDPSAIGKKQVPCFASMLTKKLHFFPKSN
Procedure: Caspase-3, -6, and -8. Caspase-3, -6 and -8 were expressed in E. coli and purified according to methods previously described by Stennicke and Salvesen. Assays using the fluorogenic substrate Z-DEVD-AFC (λex=400 nm, λem=505 nm) were carried out on a Molecular Devices fMax fluorescence microplate reader. Inhibition rates and equilibria were determined by the progress curve method. The standard 100 μL reaction was started by adding enzyme to a mixture of substrate (final concentration of Z-DEVD-AFC 100 μM) and various amounts of inhibitor in buffer (50 mM Hepes, 100 mM NaCl, 0.1% (w/v) CHAPS, sucrose 10% (w/v), and 10 mM DTT, at pH 7.4). The caspases were pre-activated for 10 min at 37° C. in the presence of 10 mM DTT.

[2] = target: T2, caspase-3 (Homo sapiens, UniProt P42574); assay: Caspase-3 progress curve assay; settings: substrate Z-DEVD-AFC; NI = no inhibition
T2 construct: made in house; host or cells: E. coli
T2 sequence (P42574 29-175 limits assumed): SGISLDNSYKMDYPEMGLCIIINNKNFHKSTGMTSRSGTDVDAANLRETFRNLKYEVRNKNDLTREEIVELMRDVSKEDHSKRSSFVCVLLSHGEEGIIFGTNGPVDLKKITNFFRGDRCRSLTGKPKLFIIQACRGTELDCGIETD
T2 sequence (P42574 176-277 limits assumed): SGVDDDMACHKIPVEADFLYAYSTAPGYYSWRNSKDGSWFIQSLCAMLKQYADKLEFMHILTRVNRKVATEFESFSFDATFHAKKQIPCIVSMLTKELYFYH
In short: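 E. coli-expressed caspases, pre-activated 10 min at 37° C with 10 mM DTT, were added to 100 μM Z-DEVD-AFC plus inhibitor in 50 mM Hepes, 100 mM NaCl, 0.1% CHAPS, 10% sucrose, 10 mM DTT, pH 7.4. AFC fluorescence (ex 400/em 505 nm) was followed; inhibition rates and equilibria came from progress curves.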

[3] = target: T3, caspase-1 (Homo sapiens, UniProt P29466, D381E); assay: Caspase-1 progress curve assay; settings: D381E variant, substrate Ac-YVAD-AMC, 30° C.
T3 construct: His tag (N); made in house; host or cells: E. coli
T3 sequence (P29466 120-297 limits assumed): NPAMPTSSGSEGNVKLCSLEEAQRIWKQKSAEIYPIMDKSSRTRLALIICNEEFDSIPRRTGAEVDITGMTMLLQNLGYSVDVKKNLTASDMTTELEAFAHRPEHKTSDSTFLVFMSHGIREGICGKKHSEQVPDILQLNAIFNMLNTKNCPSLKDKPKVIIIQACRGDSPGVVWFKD
T3 sequence (P29466 317-404 D381E limits assumed): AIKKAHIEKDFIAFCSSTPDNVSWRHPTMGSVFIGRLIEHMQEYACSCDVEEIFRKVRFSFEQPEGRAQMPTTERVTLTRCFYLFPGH
In short: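 Autolysis-resistant D381E caspase-1 (E. coli, N-His tag), about 2 nM, added with 15 μM Ac-YVAD-AMC in HEPES/glycerol/EDTA buffer with 5 mM DTT to prewarmed compound at 30 °C. AMC fluorescence followed 900 s, triplicate curves fit to irreversible inactivation; kon (M^−1s^−1) from regression slope.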

[4] = target: cathepsin B (Homo sapiens, UniProt P07858); assay: Inhibition of cathepsin B, incubation method; settings: second-order rate constant, NI = no inhibition
From the text: (§1) The release of 7-amino-4-methylcoumarin was monitored (λex=360 nm, λem=465 nm) using a Tecan Spectra Fluor microplate reader. Pseudo first-order inactivation rate constants were obtained from plots of In vt/vo versus time.

[5] = system: calpain; assay: Inhibition of calpain; settings: second-order rate constant; NI = no inhibition
[6] = target: T4, papain (Carica papaya, UniProt P00784); assay: Inhibition of papain, incubation method; settings: second-order rate constant, NI = no inhibition
T4 sequence (P00784 134-345): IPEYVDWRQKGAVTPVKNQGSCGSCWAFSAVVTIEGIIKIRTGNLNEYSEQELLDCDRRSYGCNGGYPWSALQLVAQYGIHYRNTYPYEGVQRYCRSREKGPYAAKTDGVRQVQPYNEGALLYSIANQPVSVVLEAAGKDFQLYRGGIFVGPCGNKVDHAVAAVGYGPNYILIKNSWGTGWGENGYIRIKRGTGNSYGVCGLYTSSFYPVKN
Procedure: as §1
The incubation method was also used for papain. The inhibition incubation buffer for papain was 50 mM Hepes buffer at pH 7.5, containing 2.5 mM DTT and 2.5 mM EDTA. The assay used the substrate Z-Phe-Arg-pNA (53.7 μM) in the same buffer. The approximate concentration of papain added to the incubation buffer was 0.29 mg/mL. The release of p-nitroanilide was monitored at 405 nm with a Molecular Devices Thermomax microplate reader.

[7] = target: dipeptidyl peptidase I (DPPI, cathepsin C) (Homo sapiens, UniProt P53634); assay: Inhibition of DPPI
dipeptidyl peptidase I (DPPI, cathepsin C), sequence (P53634 25-463, species assumed): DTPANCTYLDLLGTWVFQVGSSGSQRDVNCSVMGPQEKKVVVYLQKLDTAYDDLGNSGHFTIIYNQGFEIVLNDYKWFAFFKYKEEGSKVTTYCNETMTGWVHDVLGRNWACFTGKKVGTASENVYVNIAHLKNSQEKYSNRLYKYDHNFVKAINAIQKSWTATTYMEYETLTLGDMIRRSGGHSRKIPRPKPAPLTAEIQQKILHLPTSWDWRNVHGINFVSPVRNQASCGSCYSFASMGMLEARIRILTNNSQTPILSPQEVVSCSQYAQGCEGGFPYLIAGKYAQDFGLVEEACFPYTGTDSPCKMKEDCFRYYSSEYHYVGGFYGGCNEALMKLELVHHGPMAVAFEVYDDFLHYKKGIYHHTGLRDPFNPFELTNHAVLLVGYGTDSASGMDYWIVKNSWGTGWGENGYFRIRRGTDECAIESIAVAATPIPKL

| kobs/[I] cathepsin B [4] [M⁻¹ s⁻¹] | kobs/[I] papain [6] [M⁻¹ s⁻¹] | SMILES | k2 caspase-6 [1] [M⁻¹ s⁻¹] | k2 caspase-3 [2] [M⁻¹ s⁻¹] | kobs/[I] calpain [5] [M⁻¹ s⁻¹] | also measured |
| --- | --- | --- | --- | --- | --- | --- |
| – | – | CC(C)[C@H](NC(=O)CCc1ccccc1)C(=O)N[C@@H](C)C(=O)NN(CC(=O)O)C(=O)[C@H]1O[C@@H]1C(=O)N(C)Cc1ccccc1 [11-17, (2S,3S)-2-(N-Methyl-N-benzylcarbamoyl)-3-(N^2-(3-phenylpropanoylvalylalanyl)-N^1-carboxymethylhydrazinocarbonyl)oxirane] | 136 | 1950 ± 150 | – | – |
| – | – | CC[C@H](C)[C@H](NC(=O)OCc1ccccc1)C(=O)N[C@@H](CCC(=O)O)C(=O)N[C@H](C(=O)NN(CC(=O)O)C(=O)[C@H]1O[C@@H]1C(=O)N(Cc1ccccc1)Cc1ccccc1)[C@@H](C)O [11-11, (2S,3S)-2-(Dibenzylcarbamoyl)-3-(N^2-(N-benzyloxycarbonylisoleucylglutamylthreonyl)-N^1-carboxymethylhydrazinocarbonyl)oxirane] | 32000 ± 1680 | 3550 | – | – |
| – | – | CC(C)[C@H](NC(=O)CCc1ccccc1)C(=O)N[C@@H](C)C(=O)NN(CC(=O)O)C(=O)[C@H]1O[C@@H]1C(=O)N(Cc1ccccc1)Cc1ccccc1 [10-127, (2S,3S)-2-(Dibenzylcarbamoyl)-3-(N^2-(3-phenylpropanoylvalylalanyl)-N^1-carboxymethylhydrazinocarbonyl)oxirane] | 145 ± 1 | 830 ± 40 | – | k2 caspase-1 [3]: 101140 ± 9547 M⁻¹ s⁻¹ |
| 23.32 | 6.37 | CCOC(=O)[C@@H]1O[C@H]1C(=O)N(CC(C)C)NC(=O)[C@H](CC(C)C)NC(=O)OCc1ccccc1 (relative stereo) [Cbz-Leu-ALeu-trans-EP-COOEt, trans-3-(N^2-(N-Benzyloxycarbonyleucyl)-N^1-isobutylhydrazinocarbonyl)oxirane-2-carboxylic Acid Ethyl Ester] | – | – | 3.09 | – |
| – | – | CC[C@H](C)[C@H](NC(=O)OCc1ccccc1)C(=O)N[C@@H](CCC(=O)O)C(=O)N[C@H](C(=O)NN(CC(=O)O)C(=O)[C@H]1O[C@@H]1C(=O)N(C)Cc1ccccc1)[C@@H](C)O [11-18, (2S,3S)-2-(N-Methyl-N-benzylcarbamoyl)-3-(N^2-(N-benzyloxycarbonylisoleucylglutamylthreonyl)-N^1-carboxymethylhydrazinocarbonyl)oxirane] | 47730 ± 420 | 4780 | – | – |
| 6.27 | 0.38 | CCOC(=O)[C@@H]1O[C@@H]1C(=O)N(CC(C)C)NC(=O)C(CC(C)C)NC(=O)OCc1ccccc1 (relative stereo) [Cbz-Leu-ALeu-cis-EP-COOEt, cis-3-(N^2-(N-Benzyloxycarbonyleucyl)-N^1-isobutylhydrazinocarbonyl)oxirane-2-carboxylic Acid Ethyl Ester] | – | – | 1.88 | – |
| 0.67 | 5.68 | CCOC(=O)[C@H]1O[C@@H]1C(=O)N(CCc1ccccc1)NC(=O)C(CC(C)C)NC(=O)OCc1ccccc1 (stereo partly drawn) [Cbz-Leu-AHph-(2S, 3S)-EP-COOEt, (2S,3S)-3-(N^2-(N-Benzyloxycarbonyleucyl)-N^1-phenylethylhydrazinocarbonyl)oxirane-2-carboxylic Acid Ethyl Ester] | – | – | 2.28 | – |
| 40.62 | 26.88 | CCOC(=O)C1OC1C(=O)N(CCc1ccccc1)NC(C)=O (stereo not drawn) [Ac-AHph-trans-EP-COOEt, trans-3-(N^2-(N-Acetyl)-N^1-phenylethylhydrazinocarbonyl)oxirane-2-carboxylic Acid Ethyl Ester] | – | – | 1.29 | – |
| – | – | CC(C)C[C@H](NC(=O)OCc1ccccc1)C(=O)N[C@@H](CC(C)C)C(=O)NN(CC(C)C)C(=O)[C@H]1O[C@@H]1C(=O)O [Cbz-Leu-Leu-ALeu-(2S, 3S)-EP-COOH, (2S,3S)-3-(N^2-(N-Benzyloxycarbonylleucylleucyl)-N^1-isobutylhydrazinocarbonyl)oxirane-2-carboxylic Acid] | – | – | 0.82 | kinact/KI ([4]; pH 6, read-out: kobs/[I] cathepsin B): 7.02 M⁻¹ s⁻¹; kinact/KI ([6]; pH 7.5, read-out: kobs/[I] papain): 6.93 M⁻¹ s⁻¹ |
| – | – | CC(C)C[C@H](NC(=O)OCc1ccccc1)C(=O)N[C@@H](CCC(=O)O)C(=O)N[C@H](C(=O)NN(CC(=O)O)C(=O)[C@H]1O[C@@H]1C(=O)N(C)Cc1ccccc1)[C@@H](C)O [11-16, (2S,3S)-2-(N-Methyl-N-benzylcarbamoyl)-3-(N^2-(N-benzyloxycarbonylleucylglutamylthreonyl)-N^1-carboxymethylhydrazinocarbonyl)oxirane] | 9680 ± 875 | 2640 ± 100 | – | – |
| – | – | CC(C)C[C@H](NC(=O)OCc1ccccc1)C(=O)N[C@@H](CCC(=O)O)C(=O)N[C@H](C(=O)NN(CC(=O)O)C(=O)[C@H]1O[C@@H]1C(=O)N(Cc1ccccc1)Cc1ccccc1)[C@@H](C)O [11-4, (2S,3S)-2-(Dibenzylcarbamoyl)-3-(N^2-(N-benzyloxycarbonylleucylglutamylthreonyl)-N^1-carboxymethylhydrazinocarbonyl)oxirane] | 13840 ± 270 | 2750 ± 205 | – | – |
| 4.43 | 16.1 | CCOC(=O)[C@@H]1O[C@H]1C(=O)N(CC(C)C)NC(=O)OCc1ccccc1 (relative stereo) [Cbz-ALeu-trans-EP-COOEt, trans-3-(N^2-(N-Benzyloxycarbonyl)-N^1-isobutylhydrazinocarbonyl)oxirane-2-carboxylic Acid Ethyl Ester] | – | – | 1.75 | – |
| – | – | CCCCC(N)C(=O)NN(CCc1ccccc1)C(=O)C1OC1C(=O)OCC.O=C(O)C(F)(F)F (stereo not drawn) [Nle-AHph-trans-EP-COOEt.TFA, trans-3-(N^2-Norleucyl)-N^1-phenylethylhydrazinocarbonyl)oxirane-2-carboxylic Acid Ethyl Ester Trifluoroacetate Salt] | – | – | – | kobs/[I] DPPI [7]: 8.2 M⁻¹ s⁻¹ |
| – | – | CCCC(N)C(=O)NN(CCc1ccccc1)C(=O)C1OC1C(=O)OCC.O=C(O)C(F)(F)F (stereo not drawn) [Nva-AHph-trans-EP-COOEt.TFA] | – | – | – | kobs/[I] DPPI [7]: 3.2 M⁻¹ s⁻¹ |
| – | – | CCCCN(CCCC)C(=O)[C@H]1O[C@@H]1C(=O)N(CC(=O)O)NC(=O)[C@H](C)NC(=O)[C@@H](NC(=O)CCc1ccccc1)C(C)C [10-129, (2S,3S)-2-(Dibutylcarbamoyl)-3-(N^2-(3-phenylpropanoylvalylalanyl)-N^1-carboxymethylhydrazinocarbonyl)oxirane] | 53 ± 9 | 520 ± 10 | – | k2 caspase-1 [3]: 26150 ± 5460 M⁻¹ s⁻¹ |
